This passage reports Ki results from patent US6416733B1, “Radiopharmaceuticals for imaging infection and inflammation” (Bristol-Myers Squibb Pharma Company, priority 1996, dated 2002).

The pKi is −log10 of the Ki, conventionally taken in molar units.

pKi: −log10 of the molar value.

In the assay the target is T1, PMN LTB4 receptor (Homo sapiens, UniProt Q15722).
T1 construct: endogenous in cells; host or cells: neutrophils (PMN) isolated from heparinized blood by ficoll gradient and dextran sedimentation
T1 sequence (Q15722 whole entry): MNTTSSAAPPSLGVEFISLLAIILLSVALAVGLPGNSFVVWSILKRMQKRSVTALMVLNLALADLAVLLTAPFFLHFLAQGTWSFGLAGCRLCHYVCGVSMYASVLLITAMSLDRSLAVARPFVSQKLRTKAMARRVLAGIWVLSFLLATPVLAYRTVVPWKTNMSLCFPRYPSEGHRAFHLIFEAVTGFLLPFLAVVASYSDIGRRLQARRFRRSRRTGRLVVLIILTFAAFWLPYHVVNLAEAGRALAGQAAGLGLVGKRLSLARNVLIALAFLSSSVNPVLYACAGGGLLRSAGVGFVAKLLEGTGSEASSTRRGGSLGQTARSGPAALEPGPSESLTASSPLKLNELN
The assay is described as follows: LTB4 Human Neutrophil (PMN) Binding Assay. The conditions noted are these: read-out: Ki, affinity for LTB4 (receptor). The text has this:
LTB4 Human Neutrophil (PMN) Binding Assay
LTB4 for the PMN LTB4 receptor.

For `O=C(CCCCCOc1cc(-c2ccc3c(c2)OCO3)cc(-c2ccccc2)n1)NC(Cc1ccc(O)cc1)C(=O)O` (stereo not drawn) [Compound III], the pKi is 7.39.

`CCc1cc(-c2ccc(F)cc2)c(O)cc1OCCCCC(C)(C)CNC(=O)c1ccc(N/N=C/c2ccccc2)nc1` [IIa]: the pKi was 8.10.

On to `O=C(CCCCCOc1cc(-c2ccc3c(c2)OCO3)cc(-c2ccccc2)n1)NC(Cc1ccc(OCCCNC(=O)c2ccc(N/N=C/c3ccccc3S(=O)(=O)O)nc2)cc1)C(=O)O` (stereo not drawn) [Reagent IV], for which the pKi is 7.28.
